Experimental data from paper PMC8237609 (Molecular Metabolism, 2021).

Target: human recombinant LANCL1 (hLANCL1) (Homo sapiens, UniProt O43813)
Assay: [3H]ABA equilibrium saturation binding, nitrocellulose filtration

human recombinant LANCL1 (hLANCL1), sequence (O43813 whole entry): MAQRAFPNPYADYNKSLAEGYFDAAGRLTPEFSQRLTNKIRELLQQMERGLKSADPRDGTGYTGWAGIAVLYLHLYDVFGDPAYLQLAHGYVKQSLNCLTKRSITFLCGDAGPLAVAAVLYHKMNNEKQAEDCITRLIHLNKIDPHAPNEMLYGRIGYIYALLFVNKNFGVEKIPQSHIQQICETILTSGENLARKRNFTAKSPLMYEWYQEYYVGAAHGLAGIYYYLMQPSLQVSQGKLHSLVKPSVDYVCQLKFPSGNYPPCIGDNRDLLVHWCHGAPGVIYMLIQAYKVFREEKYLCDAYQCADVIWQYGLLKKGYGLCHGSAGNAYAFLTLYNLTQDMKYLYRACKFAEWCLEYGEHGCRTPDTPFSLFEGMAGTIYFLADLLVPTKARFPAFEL

**Q.** For `CC1=CC(=O)CC(C)(C)C1(O)/C=C/C(C)=C\C(=O)O` (racemic) [ABA, (±)-ABA], which Kd is on record?
**A.** 1000 ± 400 nM
